Source: patent publication US8354265B2, “Chemicals promoting the growth of N-acylhomoserine lactone-degrading bacteria” (Centre National de la Recherche Scientifique, priority 2007, dated 2013)
“Also recorded” adds a separate entry of the source.

Tests used:
[1] = tested on: bacterial consortia from unplanted soil; assay: C6-HSL inactivation by bacterial consortia enriched from unplanted soil on the compound as sole carbon source; format: cell-based; conditions: soil and rhizospheric samples; among 25 assayed molecules
[2] = tested on: bacterial consortia originating from rhizospheric soil; assay: C6-HSL inactivation by bacterial consortia enriched from rhizospheric soil; format: cell-based
[3] = tested on: bacterial isolates from untreated and GCL-treated batches; assay: Assimilation of GCL as sole carbon source versus NAHL inactivation by isolates (FIG. 10); format: cell-based; conditions: untreated and GCL-treated (0.1 and 0.4 mL/L) batches; D14 and D28
Protocol: Each disk represents 90 isolates from untreated or GCL-treated (0.1 and 0.4 mL/L) batches 14 days (D14) and 28 days (D28) after the beginning of the treatment.
(§1) Bacterial isolates grown in 96-microwell plates were individually tested from production of NAHL with the A. tumefaciens biosensor NT1 (pZNLR4) and the inactivation of the C6-HSL signal, as described previously (d'Angelo-Picard et al. 2004).
Results were cross-examined with respect to the ability of each strain to inactivate (or not) NAHL signal.

[4] = tested on: bacterial populations of potato roots; assay: DGGE analysis of bacterial populations associated with roots; format: in vivo, Solanum tuberosum; conditions: D14 and D28; 0.1 and 0.4 mL/L, most visible at 0.4 mL/L
Protocol: FIG. 11: DGGE analyses. […] Numbered bands on pictures were analyzed by sequencing. For each sequence or group of sequences, one of the closest rrs sequences was indicated. It is identified by its Genbank number, the similarity indice (SI) (calculated at Ribosomal Database Project http://rdp.cme.msu.edu/), and the name and taxonomical position of the bacteria of origin (Bact, Bacteria; BC, Bacteroidetes/Chlorobi group; Firm, Firmicutes; α,α-proteobacteria; β,β-proteobacteria; and γ,γ-proteobacteria).
The structure of the bacterial population associated with roots system (ca. 10 g) was analyzed by DGGE of PCR-amplified rrs region (position 341-534 of E. coli sequence). Two samples were analyzed from each batch. The DGGE analysis was performed by Microbial Insights (Rockford, Tenn., USA), as previously described (d'Angelo-Picard et al., 2004). Band positions in each line were converted to 0 (absence) and 1 (presence) value and assembled in a matrix. Profile similarity was calculated with the Dice algorithm using DistAFLP software (http://pbil.univ-lyon1.fr/ADE-4/microb). Sequence identification of selected bands was performed using the sequence match facility of the Ribosomal Database Project (http://rdp.cme.msu.edu/), according to NCBI taxonomy (http://www.ncbi.nlm.nih.gov/Taxonomy/). […]

[5] = tested on: Erwinia carotovora subsp. atroseptica 6276; assay: Maceration assay on potato tubers (biocontrol activity of consortia); format: in vivo; conditions: potato tubers infected with mix of Erwinia carotovora 6276 and consortia
Text: FIG. 6: Maceration assay on potato tubers.
The Mannitol-, 6CL-, GCL-, and HTN-consortia were compared for their capacity to inactivated OC8-HSL, the major NAHL produced by the plant pathogen Erwinia carotovora subsp. atroseptica 6276, as well as for their biocontrol activity against this pathogen in potato maceration assay.

[6] = tested on: NAHL-degrading and NAHL-producing bacteria of potato rhizosphere; assay: Two independent analyses of 6CL and GCL treatments on planted batches (FIG. 7); format: in vivo, Solanum tuberosum var. Allians
Text: FIG. 7: Percentage of NAHL-degrading and NAHL-producing strains in potato rhizosphere. […] An untreated batch was used as a control in the two independent sets of experiments. The mean of three replicates is shown. Statistically different values (Student t test; 0.05) are noted by different letters.
The non sterile batches (40×60×8 cm) contained 13 L of the nutritive solution Hydrobloom (Cellmax, UK) with Nitrogen at 0.80 g/L, Phosphore at 0.56 g/L and Potassium at 1.48 g/L as major components. The solution was diluted from a concentrated stock solution (×250) with non sterile water from the public water system. One hundred plants of Solanum tuberosum var. Allians, which were recovered from cultures performed under sterile conditions, were placed into holes (3 cm space to each other) of batch covers. Planted batches were placed in the greenhouse (Comité Nord Plants de Pomme de Terre, Bretteville-du-Grand-Caux) under natural light at 10-15° C. (night) and 25-30° C. (day). […] An untreated batch was used as a control. One gram of roots (fresh weight) was resuspended in 10 mL of sterile MgSO4 10 mM, diluted and spread on TSA and King B plates to isolate total cultivable bacteria and fluorescent Pseudomonas, respectively. Three samples were analyzed from each batch at each time D0, D14 and D28; from each sample, thirty isolates from TSA plates and thirty fluorescent isolates from King B plates were individually tested from production and inactivation of NAHL signal.
as §1
An untreated batch was used as a control.

CCC1CCC(=O)O1 (centres unmarked) [GCL, gamma-caprolactone]
growth stimulation of NAHL-degrading bacteria after enrichment procedures [1]: stimulated the growth of NAHL-degrading bacteria
activity of consortia towards C6-HSL (ranking) [2]: the most active
occurrence of bacteria both assimilating GCL and inactivating NAHL [3]: only detected in the treated batches
change of bacterial populations by DGGE [4]: drastic remodelling of bacterial populations
biocontrol activity of the consortia against E. carotovora 6276 [5]: biocontrol activity was observed; also recorded: showed biocontrol activity
cell density (CFU/g of root) ([6]; 14 days after application at 0.4 mL/L, two experiments): consistently increased
level of NAHL-degrading bacteria among fluorescent Pseudomonads ([6]; after GCL-treatments): no modification
percentage of NAHL-degrading bacteria among total cultivable bacteria ([6]; applied to hydroponic plant cultures (FIG. 7)): significant increase
